Laboratory results taken from patent publication US20220089592A1, “IMIDAZO[1,2-A]PYRIDINYL DERIVATIVES AS IRAK4 INHIBITORS” (priority 2019, published 2022).

Key:
[1] = target: T1, IRAK4 (Homo sapiens, UniProt Q9NWZ3); assay: 2-hour 10 μM ATP Biochemical Assay (MesoScale Detection format; IRAK4 phosphorylation of biotin labeled IRAK1 activation loop peptide)
T1 sequence (Q9NWZ3 1-460): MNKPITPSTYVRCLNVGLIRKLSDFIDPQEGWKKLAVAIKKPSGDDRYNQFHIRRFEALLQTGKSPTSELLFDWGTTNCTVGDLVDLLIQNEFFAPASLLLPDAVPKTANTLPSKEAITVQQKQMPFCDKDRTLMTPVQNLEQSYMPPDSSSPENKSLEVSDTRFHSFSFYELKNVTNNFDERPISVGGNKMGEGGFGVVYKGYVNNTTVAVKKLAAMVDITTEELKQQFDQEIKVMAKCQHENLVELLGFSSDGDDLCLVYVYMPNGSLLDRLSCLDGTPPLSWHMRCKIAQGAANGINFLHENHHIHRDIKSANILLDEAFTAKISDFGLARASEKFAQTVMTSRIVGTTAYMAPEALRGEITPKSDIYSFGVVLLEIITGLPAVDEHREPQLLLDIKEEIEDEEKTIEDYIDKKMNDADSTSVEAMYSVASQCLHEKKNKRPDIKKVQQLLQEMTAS
Summary of the method: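 Kinase reaction run 2 h at 10 μM ATP with biotinylated IRAK1 activation-loop peptide, quenched with EDTA. Phospho-peptide captured on streptavidin MSD plates and detected with anti-phosphothreonine rabbit antibody plus Sulfo-Tag anti-rabbit electrochemiluminescence.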

[2] = target: T1, IRAK4; assay: 2-hour 1 mM ATP IRAK4 Biochemical assay (as above, but with 100 pM IRAK4 and 1 mM ATP); conditions: IRAK4 MSD BIOCHEMICAL (1 mM ATP) IC50 (μM), 100 pM IRAK4, 2 hours
Summary of the method: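 Run with 100 pM IRAK4 and 1 mM ATP for 2 hours, quenched with EDTA pH 8. Phosphorylated biotinylated peptide captured on streptavidin MSD plates and detected with anti-phosphothreonine antibody plus Sulfo-Tag secondary by electrochemiluminescence.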

[3] = IRAK4 MSD BIOCHEMICAL (10 μM ATP) IC50 (μM), 1 nM IRAK4, 2 hours

| Structure (SMILES) | IC50 [1, 3] | IC50 [2] | IC50 ([1]; read-out: IRAK4 MSD BIOCHEMICAL (10 μM ATP) IC50, 1 nM IRAK4, 2 hours) |
| --- | --- | --- | --- |
| CCOc1cc2nc(CC3CCOC3)cn2cc1NC(=O)c1coc(-c2cnn(C)c2)n1 (centres unmarked) [Example 22, N-(7-ethoxy-2-((tetrahydrofuran-3-yl)methyl)imidazo[1,2-a]pyridin-6-yl)-2-(1-methyl-1H-pyrazol-4-yl)oxazole-4-carboxamide] | 0.001 µM | 0.002 µM |  |
| CCOc1cc2nc(C(F)C3CCOC3)cn2cc1NC(=O)c1cccc(C(F)(F)F)n1 (mixture of isomers) [Example 142, N-(7-ethoxy-2-(fluoro(tetrahydrofuran-3-yl)methyl)imidazo[1,2-a]pyridin-6-yl)-6-(trifluoromethyl)picolinamide] | 0.001 µM | 0.001 µM |  |
| CCOc1cc2nc([C@H](O)C3CC3)cn2cc1NC(=O)c1cccc(C(F)(F)F)n1 (single isomer, unassigned) [Example 170] | 0.004 µM | 0.012 µM |  |
| CCOc1nc2nc(C3CCOCC3)cn2cc1NC(=O)c1cccc(OC)n1 [Example 368, N-(7-ethoxy-2-(tetrahydro-2H-pyran-4-yl)imidazo[1,2-a]pyrimidin-6-yl)-6-methoxypicolinamide] | 0.008 µM | 0.016 µM |  |
| CCOc1nc2nc(CCCOC)cn2cc1NC(=O)c1cccc(C(F)F)n1 [Example 242, 6-(difluoromethyl)-N-(7-ethoxy-2-(3-methoxypropyl)imidazo[1,2-a]pyrimidin-6-yl)picolinamide] | 0.001 µM | 0.003 µM |  |
| CCOc1cc2nc(C[C@H]3CCOC3)cn2cc1NC(=O)c1cccc(C(F)F)n1 (single isomer, unassigned) [Example 15] | 0.001 µM | 0.001 µM |  |
| CCOc1cc2nc(C3CC3)cn2cc1NC(=O)c1cccc2c1OCC2 [Example 119, N-(2-cyclopropyl-7-ethoxyimidazo[1,2-a]pyridin-6-yl)-2,3-dihydrobenzofuran-7-carboxamide] | 0.009 µM | 0.021 µM |  |
| CCOc1cc2nc(CC3CCOC3)cn2cc1NC(=O)c1ccn(C(C)C)n1 (centres unmarked) [Example 122, N-(7-ethoxy-2-((tetrahydrofuran-3-yl)methyl)imidazo[1,2-a]pyridin-6-yl)-1-isopropyl-1H-pyrazole-3-carboxamide] | 0.008 µM | 0.003 µM |  |
| CCOc1cc2nc([C@H]3C[C@H](OC(C)C)C3)cn2cc1NC(=O)c1cccc(C(F)F)n1 [Example 135, 6-(difluoromethyl)-N-(7-ethoxy-2-((1r,3r)-3-isopropoxycyclobutyl)imidazo[1,2-a]pyridin-6-yl)picolinamide] | 0.002 µM | 0.006 µM |  |
| CCOc1cc2nc(C3CC3)cn2cc1NC(=O)c1cccc(OC)n1 [Example 117, N-(2-cyclopropyl-7-ethoxyimidazo[1,2-a]pyridin-6-yl)-6-methoxypicolinamide] | 0.027 µM | 0.063 µM |  |
| O=C(Nc1cn2cc(C3CCOCC3)nc2cn1)c1cccc(C(F)F)n1 [Example 330, 6-(difluoromethyl)-N-(2-(tetrahydro-2H-pyran-4-yl)imidazo[1,2-a]pyrazin-6-yl)picolinamide] | 0.023 µM | 0.038 µM |  |
| CCOc1cc2nc(C3(O)CCOCC3)cn2cc1NC(=O)c1cccc(C(F)F)n1 [Example 90, 6-(difluoromethyl)-N-(7-ethoxy-2-(4-hydroxytetrahydro-2H-pyran-4-yl)imidazo[1,2-a]pyridin-6-yl)picolinamide] | 0.002 µM | 0.004 µM |  |
| COc1cc(NC(=O)c2cccc(C(F)F)n2)cn2cc(C3CCOCC3)nc12 [Example 304, 6-(difluoromethyl)-N-(8-methoxy-2-(tetrahydro-2H-pyran-4-yl)imidazo[1,2-a]pyridin-6-yl)picolinamide] | 0.006 µM | 0.013 µM |  |
| CCOc1cc2nc(CC(F)CO)cn2cc1NC(=O)c1cccc(C(F)F)n1 (centres unmarked) [Example 99, 6-(difluoromethyl)-N-(7-ethoxy-2-(2-fluoro-3-hydroxypropyl)imidazo[1,2-a]pyridin-6-yl)picolinamide] | 0.002 µM | 0.004 µM |  |
| CCOc1cc2nc(Cc3ccn(C)n3)cn2cc1NC(=O)c1cccc(C(F)F)n1 [Example 84, 6-(difluoromethyl)-N-(7-ethoxy-2-((1-methyl-1H-pyrazol-3-yl)methyl)imidazo[1,2-a]pyridin-6-yl)picolinamide] | 0.082 µM | 0.015 µM |  |
| N#CCOc1cc2nc(C3CCOCC3)cn2cc1NC(=O)c1cccc(C(F)F)n1 [Example 172, N-(7-(cyanomethoxy)-2-(tetrahydro-2H-pyran-4-yl)imidazo[1,2-a]pyridin-6-yl)-6-(difluoromethyl)picolinamide] | 0.002 µM | 0.004 µM |  |
| CCOc1cc2nc(C3(F)CC3)cn2cc1NC(=O)c1cccc(C(F)F)n1 [Example 111, 6-(difluoromethyl)-N-(7-ethoxy-2-(1-fluorocyclopropyl)imidazo[1,2-a]pyridin-6-yl)picolinamide] | 0.002 µM | 0.003 µM |  |
| CCOc1cc2nc(C34CC(F)(C3)C4)cn2cc1NC(=O)c1cccc(C(F)F)n1 [Example 127, 6-(difluoromethyl)-N-(7-ethoxy-2-(3-fluorobicyclo[1.1.1]pentan-1-yl)imidazo[1,2-a]pyridin-6-yl)picolinamide] | 0.001 µM | 0.003 µM |  |
| CCOc1cc2nc(C3CCOCC3)cn2cc1NC(=O)c1cccc(C#N)n1 [Example 365, 6-cyano-N-(7-ethoxy-2-(tetrahydro-2H-pyran-4-yl)imidazo[1,2-a]pyridin-6-yl)picolinamide] | 0.002 µM | 0.006 µM |  |
| CCOc1cc2nc(CCCO)cn2cc1NC(=O)c1cccc(C(F)F)n1 [Example 23, 6-(difluoromethyl)-N-(7-ethoxy-2-(3-hydroxypropyl)imidazo[1,2-a]pyridin-6-yl)picolinamide] | 0.001 µM | 0.002 µM |  |
| CCOc1cc2nc(C(C)C3CCOC3)cn2cc1NC(=O)c1cccc(C(F)(F)F)n1 (single isomer, unassigned) [Example 139] | 0.001 µM | 0.001 µM |  |

Further compounds by falling IC50 [2], results first:

| IC50 [1, 3] | IC50 [2] | IC50 ([1]; read-out: IRAK4 MSD BIOCHEMICAL (10 μM ATP) IC50, 1 nM IRAK4, 2 hours) | Structure (SMILES) |
| --- | --- | --- | --- |
| 0.006 µM | 0.019 µM |  | CCOc1cc2nc(C3CCOCC3)cn2cc1NC(=O)c1cnc2c(c1)CCO2 [Example 240, N-(7-ethoxy-2-(tetrahydro-2H-pyran-4-yl)imidazo[1,2-a]pyridin-6-yl)-2,3-dihydrofuro[2,3-b]pyridine-5-carboxamide] |
| 0.003 µM | 0.011 µM |  | CCOc1cc2nc(CC)cn2cc1NC(=O)c1cccc(C(F)(F)F)n1 [Example 1, N-(7-ethoxy-2-ethylimidazo[1,2-a]pyridin-6-yl)-6-(trifluoromethyl)picolinamide] |
| 0.001 µM | 0.005 µM |  | CCOc1cc2nc(C34CC(C)(C3)C4)cn2cc1NC(=O)c1cccc(C(F)(F)F)n1 [Example 520, N-(7-ethoxy-2-(3-methylbicyclo[1.1.1]pentan-1-yl)imidazo[1,2-a]pyridin-6-yl)-6-(trifluoromethyl)picolinamide 2,2,2-trifluoroacetate] |
|  | 0.004 µM | 0.001 µM | CCOc1nc2nc(CC3CCOC3)cn2cc1NC(=O)c1cccc(C(F)(F)F)n1 (single isomer, unassigned) [Example 94] |
| 0.002 µM | 0.004 µM |  | CCOc1cc2nc(C3CC34CCOC4)cn2cc1NC(=O)c1cccc(C(F)F)n1 (mixture of isomers) [Example 171, 6-(difluoromethyl)-N-(7-ethoxy-2-(5-oxaspiro[2.4]heptan-1-yl)imidazo[1,2-a]pyridin-6-yl)picolinamide] |
| 0.002 µM | 0.003 µM |  | CCOc1cc2nc(C(C)(F)F)cn2cc1NC(=O)c1cccc(C(F)F)n1 [Example 109, N-(2-(1,1-difluoroethyl)-7-ethoxyimidazo[1,2-a]pyridin-6-yl)-6-(difluoromethyl)picolinamide] |
| 0.001 µM | 0.002 µM |  | CCOc1cc2nc(C3(C#N)CCOCC3)cn2cc1NC(=O)c1cccc(C(F)F)n1 [Example 160, N-(2-(4-cyanotetrahydro-2H-pyran-4-yl)-7-ethoxyimidazo[1,2-a]pyridin-6-yl)-6-(difluoromethyl)picolinamide] |
| 0.001 µM | 0.002 µM |  | CCOc1nc2nc(C3CCOCC3)cn2cc1NC(=O)c1cccc(C(F)F)n1 [Example 372, 6-(difluoromethyl)-N-(7-ethoxy-2-(tetrahydro-2H-pyran-4-yl)imidazo[1,2-a]pyrimidin-6-yl)picolinamide] |
| 0.001 µM | 0.002 µM |  | CCOc1cc2nc(CC3CCOCC3)cn2cc1NC(=O)c1cccc(C(F)F)n1 [Example 151, 6-(difluoromethyl)-N-(7-ethoxy-2-((tetrahydro-2H-pyran-4-yl)methyl)imidazo[1,2-a]pyridin-6-yl)picolinamide] |
| 0.001 µM | 0.001 µM |  | C[C@@H]1C[C@@H](Oc2cc3nc(C4CCOCC4)cn3cc2NC(=O)c2cccc(C(F)F)n2)CCO1 (relative stereo) [Example 186, 6-(difluoromethyl)-N-(7-(((2R*,4S*)-2-methyltetrahydro-2H-pyran-4-yl)oxy)-2-(tetrahydro-2H-pyran-4-yl)imidazo[1,2-a]pyridin-6-yl)picolinamide] |
